{"source": "patent US20100285959A1", "about": "“HERBICIDAL MIXTURES” (priority 2006, published 2010)", "system": "smallflower umbrella sedge (CYPDI)", "test": "Test 32 greenhouse, simulated flooded rice culture", "type": "in vivo, Cyperus difformis", "details": "postemergence to flood, 21 DAA", "experimental": "A greenhouse trial was conducted to evaluate the effects of Compound 1 and isoxadifen-ethyl at different ratios in simulated flooded rice culture. Plastic pots (11-cm diameter) were partially filled with non-sterilized Tama silt loam soil containing a 15:57:28 ratio of sand, silt and clay and 2.9% organic matter. Seeds of Heteranthera limosa (ducksalad; HETLI), Cyperus difformis (smallflower umbrella sedge; CYPDI), one stand of Echinochloa crus-galli (barnyardgrass; ECHCG), and one stand of four rice seedlings (Oryza sativa cv. ‘M202’; ORYSA) were planted into a single 11-cm diameter pot for each rate and mixture of rates. To obtain this planting, C. difformis and H. limosa seeds were planted separately on the surface soil layer at particular locations within each pot. Water levels were brought to a puddled condition above the soil surface directly after planting. E. crus-galli and rice seeds were planted in cavity trays in the silt loam soil and transplanted at the 1.5 and 2.0 leaf stage, respectively. E. crus-galli and rice plants were transplanted to about 2-cm depth by transferring plugs from the cavity trays. Plantings were sequential so that these plant species all reached the 2.0- to 2.5-leaf stage in the 11-cm diameter pot at time of treatment. Plantings were established and maintained in a greenhouse with day and night temperatures of about 29.5 and 26.7° C. respectively; supplemental balanced lighting was provided to maintain a 16-hour photoperiod. Pots were fertilized periodically with a 200 ppm solution of commercial Scotts Peters® Professional® General Purpose 20-20-20 Water Soluble Fertilizer, amended to 10 ppm with a commercial iron-chelate micronutrient fertilizer. The solution was supplied at time of watering via a liquid fertilizer injector.\nAt treatment time, test pots were flooded to 3 cm above the soil surface and maintained at that water depth for the duration of the test. Chemical treatments were formulated in acetone and applied directly to the paddy water (i.e., postemergence to flood). Make-up volumes of acetone were added to ensure that all pots were treated with a consistent volume. Test pots were maintained in the greenhouse. A randomized complete block design was employed. Five replicates of each treatment, alone and in mixture, were used. Each species was visually evaluated for treatment effects by comparing those treated to untreated controls and rated for plant response after 21 days.", "data": [{"molecule": "Nc1nc(C2CC2)nc(C(=O)O)c1Cl", "note": "[Compound 1, 6-amino-5-chloro-2-cyclopropyl-4-pyrimidinecarboxylic acid]", "values": [{"measurement": "CYPDI Obs", "setting": "Cpd 1 31.25 g a.i./ha", "result": 80}, {"measurement": "CYPDI Obs", "setting": "Cpd 1 62.5 g a.i./ha", "result": 74}, {"measurement": "CYPDI Obs", "setting": "Cpd 1 125 g a.i./ha", "result": 92}]}]}
